From patent publication US20250082630A1, “METHODS OF TREATING BRAIN TUMOURS AND NEUROBLASTOMAS” (AstraZeneca AB, priority 2021, published 2025) come the findings set out here.

In this assay the test system is BRCA2 (−/−) DLD1 cells. The assay can be described thus: PARP proliferation assay (7 day compound dosing), BRCA2 (−/−) DLD1. In kind it is cell-based. To be noted: Homo sapiens, DLD-1, 168 h, read-out: BRCA2 −/− DLD-1 prolif. 7 d IC50. The method, then: DLD1 and BRCA2 (−/−) DLD1 cells were harvested to a density of 5000 cells/ml and 2.5E4 cells/ml respectively in complete media, 40 μL/well seeded into 384-well plates (Greiner, Kremsmunster, Austria; 781090) using a Multidrop Combi then incubated at 37° C., 5% CO2 overnight. Next day (Day 1) using a Multidrop Combi add sytox green (5ul, 2 uM) and saponin (10 ul, 0.25% stock) to a day 0 plate, seal the plate using a black adhesive lid and incubate for >3 h at it. Cells were imaged using Cell Insight (Thermo Fisher) fitted with a 4x objective. Test compounds are added using an Echo 555 and placed in incubator maintained at 37° C., 5% CO2 and incubated for 7 days. On Day 8 add sytox green (5ul, 2 uM) and then saponin (10 ul, 0.25% stock) to plates, seal the plate using a black adhesive lid and incubate for >3 h at it. Read all cells on the Cell Insight with 4× Objective. The rate of proliferation is determined in Genedata by assessing the total cell number output from the Cell Insight for Day 0 and Day 8 plates.

`CNC(=O)c1ccc(N2CCN(Cc3ccc4nc(C)c(=O)[nH]c4c3F)CC2)c(F)n1` [Example 20, 6-fluoro-5-[4-[(5-fluoro-2-methyl-3-oxo-4H-quinoxalin-6-yl)methyl]piperazin-1-yl]-N-methyl-pyridine-2-carboxamide]: the IC50 came out at 8 nM.
